Results published in US20250101446A1, “METHOD FOR GENETIC TRANSFORMATION OF PLANT ORGANELLE GENOME AND USES THEREOF” (Solar Grants Biotechnology Inc., priority 2022, published 2025).

Assays:
in vitro = details: human
[1] = system: human NSCLC cell line NCI-H1792; experiment: IL-6 secretion by NCI-H1792 cells incubated with NSP10-derived peptides (ELISA); assay type: cell-based; details: peptide 24 h
[2] = system: human metastatic breast cancer cell line MDA-MB-231; experiment: IL-6 secretion by MDA-MB-231 cells (P1 stimulation, plantakine pre-incubation; ELISA); assay type: cell-based
Method: IL-6 secretion by the human metastatic breast cancer cell line MDA-MB-231 into the conditioned media was measured by ELISA. The cells were pre-incubated for 3 h in the presence of plant-produced recombinant IL-38 or IL-37b at the indicated concentrations (ng/ml) prior to stimulation with peptide P1 (10 mM). PBS (1×) was added to the control. Shown are the average results of 3 independent experiments. ** P<0.01; * P<0.05, compared with the control.
Correct folding of plant-produced IL-38 and IL-37b anti-inflammatory cytokines was assessed by enzyme-linked immunosorbent assay (ELISA) using the DuoSet Human IL-38/IL-1F10 kit (R&D systems) and the Human IL-37/IL-1F7 uncoated ELISA kit (Invitrogen), respectively, following the instructions of the manufacturers. Secreted IL-6 was assessed using the Human IL-6 Uncoated ELISA kit (Invitrogen).

SARS-COV-2 = assay type: cell-based; details: at 200 µM concentration
[3] = system: human NSCLC cell line NCI-H1792; experiment: Attenuation of P1-induced IL-6 secretion in NCI-H1792 cells by pre-treatment with plant-produced cytokines (ELISA); assay type: cell-based; details: control protein bearing an identical His-tag

## CC[C@H](C)[C@H](NC(=O)[C@H](Cc1c[nH]cn1)NC(=O)[C@H](CS)NC(=O)[C@H](CCCNC(=N)N)NC(=O)[C@H](CS)NC(=O)[C@H](Cc1ccc(O)cc1)NC(=O)[C@H](CC(C)C)NC(=O)[C@H](CS)NC(=O)[C@H](CS)NC(=O)[C@H](CO)NC(=O)[C@H](C)NC(=O)CNC(=O)CNC(=O)[C@H](Cc1ccccc1)NC(=O)CNC(=O)[C@H](CO)NC(=O)CNC(=O)[C@H](CCCNC(=N)N)NC(=O)[C@H](CCCNC(=N)N)NC(=O)[C@H](CCCNC(=N)N)NC(=O)[C@H](CCC(N)=O)NC(=O)[C@H](CCCNC(=N)N)NC(=O)[C@H](CCCNC(=N)N)NC(=O)[C@H](CCCCN)NC(=O)[C@H](CCCCN)NC(=O)[C@H](CCCNC(=N)N)NC(=O)CNC(=O)[C@H](Cc1ccc(O)cc1)NC(C)=O)C(=O)N[C@@H](CC(=O)O)C(=O)N[C@@H](Cc1c[nH]cn1)C(=O)N1CCC[C@H]1C(=O)N[C@@H](CC(N)=O)C(=O)N1CCC[C@H]1C(=O)N[C@@H](CCCCN)C(=O)NCC(=O)N[C@@H](Cc1ccccc1)C(=O)N[C@@H](CS)C(=O)N[C@@H](CC(=O)O)C(=O)N[C@@H](CC(C)C)C(=O)N[C@@H](CCCCN)C(=O)NCC(=O)N[C@@H](CCCCN)C(=O)N[C@@H](Cc1ccc(O)cc1)C(N)=O [P1]
In vitro
  CC50: 11 µM
[1]; normalized to PBS control
  stimulation of the intrinsic secretion of IL-6: > 4 fold
[2]
  IL-6 secretion on treatment with peptide (in words): strongly increased

## CC[C@H](C)[C@H](NC(=O)[C@H](CCCNC(=N)N)NC(=O)[C@H](CS)NC(=O)[C@H](CCCNC(=N)N)NC(=O)[C@H](CS)NC(=O)[C@H](Cc1ccc(O)cc1)NC(=O)[C@H](CC(C)C)NC(=O)[C@H](CS)NC(=O)[C@H](CS)NC(=O)[C@H](CO)NC(=O)[C@H](C)NC(=O)CNC(=O)CNC(=O)[C@H](Cc1ccccc1)NC(=O)CNC(=O)[C@H](CO)NC(=O)CNC(=O)[C@H](CCCNC(=N)N)NC(=O)[C@H](CCCNC(=N)N)NC(=O)[C@H](CCCNC(=N)N)NC(=O)[C@H](CCC(N)=O)NC(=O)[C@H](CCCNC(=N)N)NC(=O)[C@H](CCCNC(=N)N)NC(=O)[C@H](CCCCN)NC(=O)[C@H](CCCCN)NC(=O)[C@H](CCCNC(=N)N)NC(=O)CNC(=O)[C@H](Cc1ccc(O)cc1)NC(C)=O)C(=O)N[C@@H](CC(=O)O)C(=O)N[C@@H](Cc1c[nH]cn1)C(=O)N1CCC[C@H]1C(=O)N[C@@H](CC(N)=O)C(=O)N1CCC[C@H]1C(=O)N[C@@H](CCCCN)C(=O)NCC(=O)N[C@@H](Cc1ccccc1)C(=O)N[C@@H](CS)C(=O)N[C@@H](CC(=O)O)C(=O)N[C@@H](CC(C)C)C(=O)N[C@@H](CCCCN)C(=O)NCC(=O)N[C@@H](CCCCN)C(=O)N[C@@H](Cc1ccc(O)cc1)C(N)=O [P2]
In vitro
  CC50: > 200 µM
[1]
  stimulation / induction of IL-6 secretion (in words): no IL-6 induction
SARS-COV-2
  effect against the virus-infected cells: no detectable effect

## GFP: His-tag containing plant-produced Green Fluorescent Protein used as control protein [reference compound]
[3]
  attenuation of P1-induced IL-6 expression (in words): did not result in any significant attenuation

## YGRKKRRQRRRGSG (HIV-Tat peptide sequence) [TAT sequence peptide, 42, reference compound]
[1]
  stimulation / induction of IL-6 secretion (in words): not
